For test [1], the system named is SA5 (DNA, G4) GGAAGGAGGGGTGACAGGG
In words: UV/Vis titration. On the set-up: unit not given here. To be noted: 100 mM K+, 10 mM lithium cacodylate, pH 7.2, independent-and-equivalent-sites model.

In test [2] the test system is EBR1 (DNA, G4) GGGCAGGGGGTGATGGGGAGGAGCCAGGG
The experiment in a line: UV/Vis titration. On the set-up: unit not given here. Conditions: 100 mM K+, 10 mM lithium cacodylate, pH 7.2, independent-and-equivalent-sites model.

Test [3] concerns ds26 (DNA, duplex) CAATCGGATCGAATTCGATCCGATTG
In words: UV/Vis titration. Conditions: 100 mM K+, 10 mM lithium cacodylate, pH 7.2, independent-and-equivalent-sites model.

Test [4] deals with mit9438 (DNA, G4) GGCGTAGGTTTGGTCTAGGG
The experiment in a line: UV/Vis titration. On the set-up: unit not given here. To be noted: 100 mM K+, 10 mM lithium cacodylate, pH 7.2, independent-and-equivalent-sites model.

Test [5] concerns F-EBR1-T (DNA, G4) GGGCAGGGGGTGATGGGGAGGAGCCAGGG
The experiment in a line: FRET melting. To be noted: 10 mM K+, 90 mM Li+; 10 mM lithium cacodylate, pH 7.2; 5 µM compound, 0.2 µM DNA.

For test [6], the system named is F-mit6363-T (DNA, G4) AGGGACGCGGGCGGGGGATATAGGGT
The experiment in a line: FRET melting. Conditions: 10 mM K+, 90 mM Li+; 10 mM lithium cacodylate, pH 7.2; 5 µM compound, 0.2 µM DNA.

Test [7] deals with F-ds26-T (DNA, duplex) CAATCGGATCGAATTCGATCCGATTG
In words: FRET melting. Conditions: 10 mM K+, 90 mM Li+; 10 mM lithium cacodylate, pH 7.2; 5 µM compound, 0.2 µM DNA.

Test [8] concerns F-21-T (DNA, G4) GGGTTAGGGTTAGGGTTAGGG
In words: FRET melting. Conditions: 10 mM K+, 90 mM Li+; 10 mM lithium cacodylate, pH 7.2; 5 µM compound, 0.2 µM DNA.

Test [9] concerns F-SA3-T (DNA, G4) GGGGCTAATTGGGGCTGGTGG
The experiment in a line: FRET melting. To be noted: 10 mM K+, 90 mM Li+; 10 mM lithium cacodylate, pH 7.2; 5 µM compound, 0.2 µM DNA.

The test system of test [10] is F-SA5-T (DNA, G4) GGAAGGAGGGGTGACAGGG
In words: FRET melting. Conditions: 10 mM K+, 90 mM Li+; 10 mM lithium cacodylate, pH 7.2; 5 µM compound, 0.2 µM DNA.

Test [11] concerns F-mit9438-T (DNA, G4) GGCGTAGGTTTGGTCTAGGG
The experiment in a line: FRET melting. To be noted: 10 mM K+, 90 mM Li+; 10 mM lithium cacodylate, pH 7.2; 5 µM compound, 0.2 µM DNA.

With `C[n+]1ccc(/C=C/c2cc(/C=C/c3cc[n+](C)cc3)cc(/C=C/c3cc[n+](C)cc3)c2)cc1`, the Ka in test [1] (7 µM ligand) worked out at 1.411; in test [2] (7 µM ligand), 0.528; in [3] (7 µM ligand), 0.165 µM⁻¹; in test [4] (7 µM ligand), 1.167.
Consider `C[n+]1ccc(/C=C/c2cc(/C=C/c3cc[n+](C)cc3)c(/C=C/c3cc[n+](C)cc3)cc2/C=C/c2cc[n+](C)cc2)cc1`, for which the ΔTm in [5] turned out to be 35.3 ± 0.6 °C; in test [6], 33.0 ± 0.0 °C; in test [7], 9.0 ± 1.0 °C; in [8], 34.7 ± 0.0 °C. The Ka in test [1] (7 µM ligand) amounted to 0.513; in test [2] (7 µM ligand), 0.367; in test [3] (7 µM ligand), 0.267 µM⁻¹; in test [4] (7 µM ligand), 1.548.
Regarding `NCCOc1cc(C(=O)Nc2cc(OCCN)c3ccccc3n2)nc(C(=O)Nc2cc(OCCN)c3ccccc3n2)c1`, the values for the ΔTm in test [7] and in [8] were 0.7 ± 0.6 °C and 24.0 ± 1.1 °C, respectively.
With `C[N+](C)(C)c1ccc(/C=C/c2cc(/C=C/c3ccc([N+](C)(C)C)cc3)cc(/C=C/c3ccc([N+](C)(C)C)cc3)c2)cc1`, in [9], the ΔTm turned out to be 31.3 ± 0.6 °C. For the same compound, the Ka in test [1] (4 µM ligand) came to 0.651; in test [2] (4 µM ligand), 0.672; in [3] (4 µM ligand), 0.083 µM⁻¹; in [4] (4 µM ligand), 0.821.
With `CCCNc1cc2c3c(ccc4c3c1C(=O)N(CCCN(C)C)C4=O)C(=O)N(CCCN(C)C)C2=O`, the ΔTm in [10] is 4.7 ± 1.0 °C.
On to `C[n+]1ccc(-c2c3nc(c(-c4cc[n+](C)cc4)c4ccc([nH]4)c(-c4cc[n+](C)cc4)c4nc(c(-c5cc[n+](C)cc5)c5ccc2[nH]5)C=C4)C=C3)cc1`, for which the ΔTm was 29.0 ± 2.1 °C in test [10] and 31.0 ± 0.0 °C in test [11].
Regarding `C[N+](C)(C)c1ccc(/C=C/c2cc(/C=C/c3ccc([N+](C)(C)C)cc3)c(/C=C/c3ccc([N+](C)(C)C)cc3)cc2/C=C/c2ccc([N+](C)(C)C)cc2)cc1`, the ΔTm in test [9] was 9.7 ± 0.6 °C; in test [7], -4.7 ± 0.6 °C. Also, the Ka in [1] (7 µM ligand) amounted to 1.065; in test [2] (7 µM ligand), 0.801; in [3] (7 µM ligand) it was 0.562 µM⁻¹; in test [4] (7 µM ligand) it was 1.420.

In general, ΔTm refers to the change in melting temperature against a reference sample.

Values taken from paper PMC11679705 (2024).
